This note sets out measurements from ChEMBL document CHEMBL1159069, “[Lys(DOTA)4]BVD15, a novel and potent neuropeptide Y analog designed for Y1 receptor-targeted breast tumor imaging” (Bioorg Med Chem Lett, 2010).

What all share (type): cell-based
The target of experiment [1] is T1, Neuropeptide Y receptor type 1 (Homo sapiens, UniProt P25929).
T1 sequence (P25929 whole entry): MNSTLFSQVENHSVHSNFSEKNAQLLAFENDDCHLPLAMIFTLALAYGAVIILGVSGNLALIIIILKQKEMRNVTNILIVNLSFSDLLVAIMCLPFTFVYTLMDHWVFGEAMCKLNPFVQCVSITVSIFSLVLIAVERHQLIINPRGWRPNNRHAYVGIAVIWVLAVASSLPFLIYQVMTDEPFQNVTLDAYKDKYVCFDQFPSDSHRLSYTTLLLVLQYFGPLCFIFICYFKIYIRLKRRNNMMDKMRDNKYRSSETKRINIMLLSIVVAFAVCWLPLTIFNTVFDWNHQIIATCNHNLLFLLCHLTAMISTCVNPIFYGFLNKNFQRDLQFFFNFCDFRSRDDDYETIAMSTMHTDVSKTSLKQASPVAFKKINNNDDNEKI
Kind of experiment: Displacement of [125I]NPY from human neuropeptide Y1 receptor expressed in human MCF7 cells after 40 mins.

Experiment [2] addresses T2, Neuropeptide Y receptor type 2 (Homo sapiens, UniProt P49146).
T2 sequence (P49146 whole entry): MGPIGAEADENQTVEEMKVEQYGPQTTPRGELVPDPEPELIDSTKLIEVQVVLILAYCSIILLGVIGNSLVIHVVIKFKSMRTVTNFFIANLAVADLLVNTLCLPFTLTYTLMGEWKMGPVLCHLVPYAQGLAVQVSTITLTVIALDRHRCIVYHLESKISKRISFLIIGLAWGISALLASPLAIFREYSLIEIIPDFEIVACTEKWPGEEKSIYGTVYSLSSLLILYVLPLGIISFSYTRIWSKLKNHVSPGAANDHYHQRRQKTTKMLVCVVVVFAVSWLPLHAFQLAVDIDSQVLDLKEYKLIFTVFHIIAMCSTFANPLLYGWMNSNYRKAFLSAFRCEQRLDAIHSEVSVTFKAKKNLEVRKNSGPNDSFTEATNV
The experiment can be described thus: Displacement of [125I]PYY from human neuropeptide Y2 receptor expressed in human SK-N-BE2 cells after 40 mins.

Experiment [3] addresses Neuropeptide Y receptor type 4 (Homo sapiens, UniProt P50391). Kind of experiment: Displacement of [125I]Pancreatic polypeptide from human neuropeptide Y4 receptor in human HEK293 cells after 40 mins.

Where “and” joins values, the source holds several entries; their conditions need not be identical. Equal values may be shown once. Where a SMILES comes first, the peptide text is derived from it. The star is where a group is joined. DOTA = O=C(O)CN1CCN(CC(=O)O)CCN(CC(=O)*)CCN(CC(=O)O)CC1

Chain of Neuropeptide Y receptor type 4 (P50391 whole entry): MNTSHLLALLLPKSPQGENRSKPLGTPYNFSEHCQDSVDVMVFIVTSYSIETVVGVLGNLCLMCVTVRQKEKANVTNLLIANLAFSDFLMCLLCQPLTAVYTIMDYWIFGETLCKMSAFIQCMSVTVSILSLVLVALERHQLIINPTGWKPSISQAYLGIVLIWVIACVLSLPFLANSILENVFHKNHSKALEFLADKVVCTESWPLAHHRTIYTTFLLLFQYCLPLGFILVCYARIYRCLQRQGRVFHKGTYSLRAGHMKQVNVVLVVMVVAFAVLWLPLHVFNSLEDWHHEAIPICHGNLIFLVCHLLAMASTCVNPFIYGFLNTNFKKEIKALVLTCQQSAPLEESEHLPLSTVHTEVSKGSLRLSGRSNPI

The term Ki denotes a measure of affinity in units of concentration, obtained from inhibition or displacement. H-IKPIYRLRY-NH2: the Ki in experiment [1] (read-out: Ki) was determined as 128 nM.
As to `CC[C@H](C)[C@H](N)C(=O)N[C@@H](CC(N)=O)C(=O)N1CCC[C@H]1C(=O)N[C@@H](CCCCNC(=O)CN1CCN(CC(=O)O)CCN(CC(=O)O)CCN(CC(=O)O)CC1)C(=O)N[C@@H](Cc1ccc(O)cc1)C(=O)N[C@@H](CCCNC(=N)N)C(=O)N[C@@H](CC(C)C)C(=O)N[C@@H](CCCNC(=N)N)C(=O)N[C@@H](Cc1ccc(O)cc1)C(N)=O`, the Ki result in experiment [2] and in experiment [3] (hek293) was “Not Active” throughout.
H-INPIYRLRY-OH: the inhibition constant (Ki) was 11.3 nM in experiment [2] (read-out: Ki); 5 nM and 39 nM in experiment [1] (read-out: Ki); 5.8 nM in experiment [3] (read-out: Ki).
As for `CC(C)C[C@H](NC(=O)[C@H](CCCNC(=N)N)NC(=O)[C@H](Cc1ccc(O)cc1)NC(=O)[C@H](CCCCNC(=O)CN1CCN(CC(=O)O)CCN(CC(=O)O)CCN(CC(=O)O)CC1)NC(=O)[C@@H]1CCCN1C(=O)[C@@H](N)CC(N)=O)C(=O)N[C@@H](CCCNC(=N)N)C(=O)N[C@@H](Cc1ccc(O)cc1)C(=O)O` (H-NPK(DOTA)YRLRY-OH), the Ki result in experiment [1] (mcf7) was “Not Active”.
